Test results as given in patent publication US10125134B2 (Mirati Therapeutics, Inc., priority 2016, dated 2018).
Like-named read-outs stand apart in the source and are kept apart here.

Tests used:
[1] = biological target: KRas G12C (Homo sapiens, UniProt P01116, C118S/C51S/C80L/G12C); assay: KRas G12C Modification Assay (LCMS detection of covalent adduct); type: binding; details: normalized percent of control, tested at 5 μM concentration for 3 hours
Experimental: A 10 μL aliquot of each protein solution was then transferred to a 384 well microtiter plate. Initial compound stocks were generated at fifty times their desired final assay concentration in DMSO.
Exemplary compounds of Formula (I) were diluted 25-fold into K-Ras Assay Buffer to a final of two times their final concentration. A 10 μL aliquot of each diluted compound solution was then added to each of the protein solutions in the microtiter plate to initiate reaction. […] At each time point, the reactions were quenched with 20 μL of a 25 mM acetic acid solution. […] Once all reactions were quenched, the plates were heat sealed and the samples were injected into a LC/MS system for data acquisition.
Samples were injected in their liquid phase onto a C-3 reverse phase column to remove assay buffer and prepare the samples for mass spectrometer. The proteins were eluted from the column using an acetonitrile gradient and fed directly into the mass analyzer. Initial raw data analysis took place in Agilent MassHunter software immediately post data acquisition.
Raw data analysis of the intact protein was exclusively a deconvolution of the multiple charge states of each protein in solution using a maximum entropy deconvolution provided in Mass Hunter. To minimize complexity, only the data over limited mass ranges were considered for analysis, with a minimum of one Dalton mass step intervals. The heights of all masses identified during raw data analysis were exported to be further analyzed in Spotfire® data analysis software.
Final data analysis was a multistep process in the Spotfire® data analysis software package. Briefly, each protein mass was calculated as a percent of the total signal of that sample, that percentage was then normalized to the percentage of signal of the protein in the absence of reactive compounds. Those normalized signals were reported as normalized percent of control (POC). […] Key: “A”≤25% POC; “B”>25% POC−≤50% POC; “C”>50% POC and ND=not determined.

[2] = system: NCI-H358 cells (express KRas G12C), Phospho-ERK; assay: Cellular inhibition of KRas G12C: Phospho-ERK in NCI-H358 cells; type: cell-based; details: pERK(Thr202/Tyr204) normalized with GAPDH, NCI-H358 cells, 3 hours, read-out: IC50
Experimental: The cellular inhibition of KRAs G12C by exemplary compounds of the present invention was determined by measuring the amount of a downstream marker of KRas activity, phosphorylated ERK (“Phospho-ERK”).
Cells were plated in poly-D-Lysine coated 96-well plates at a concentration of 50,000 cells/well and allowed to attach for 8-12 hours. Diluted compounds were then added at a final concentration of 0.5% DMSO. After 3 hours, the medium was removed, 150 μL of 4% formaldehyde was added and the plates were incubated for 20 minutes. The plates were washed with PBS, and permeabilized using 150 μL of ice cold 100% methanol for 10 minutes. Non-specific antibody binding to the plates was blocked using 100 μL Licor Blocking Buffer (Li-Cor Biotechnology, Lincoln Nebr.) for 1 hour at room temperature. Positive control samples and samples lacking cells were parallel processed with test samples as standards.
The amount Phospho-ERK was determined using an antibody specific for the phosphorylated form of ERK and compared to the amount of GAPDH. […] The plates were incubated for 2 hours at room temperature. The plates were washed with PBS+0.05% Tween 20.
Secondary antibodies used to visualize primary antibodies were added as follows: Anti-rabbit-680 diluted 1:1000 and Anti-mouse-800 diluted 1:1000 in Licor Block+0.05% Tween 20 and incubated for 1 hour at room temperature. The plates were washed with PBS+0.05% Tween 20. A 100 μL aliquot of PBS was added to each well and the plates were read on a LICOR AERIUS plate reader.
The pERK(Thr202/Tyr204) signal was normalized with the GAPDH signal and percent of DMSO control values were calculated. IC50 values were generated using a 4 parameter fit of the dose response curve. Key: “A”≥0.0001−≤1 μM; and “B”>1 μM.

SMILES	POC [1]	POC ([1]; 5 µM)	IC50 ([2]; Homo sapiens, NCI-H358, 3 h) [nM]	IC50 ([2]; Homo sapiens) [nM]	IC50 [2] [nM]
C=CC(=O)N1CCN(c2nc(OC(CO)CN3CCOCC3)nc3c2CCN(c2cc(O)cc4ccccc24)C3)CC1 (stereo not drawn) [Example 217, 1-(4-(2-((1-hydroxy-3-morpholinopropan-2-yl)oxy)-7-(3-hydroxynaphthalen-1-yl)-5,6,7,8-tetrahydropyrido[3,4-d]pyrimidin-4-yl)piperazin-1-yl)prop-2-en-1-one]	C (“C”>50% POC)	–	> 1000	–	–
C=CC(=O)N1CCN(c2nc(OCC3CCN(C4CC4)C3)nc3c2CCN(c2cc(O)cc4ccccc24)C3)CC1 (stereo not drawn) [Example 190, 1-(4-(2-((1-cyclopropylpyrrolidin-3-yl)methoxy)-7-(3-hydroxynaphthalen-1-yl)-5,6,7,8-tetrahydropyrido[3,4-d]pyrimidin-4-yl)piperazin-1-yl)prop-2-en-1-one]	C (“C”>50% POC)	–	0.1 to 1000	–	–
C=CC(=O)N1CCN(c2nc(OCC3CCN(CCO)C3)nc3c2CCN(c2cc(O)cc4ccccc24)C3)CC1 (stereo not drawn) [Example 141, 1-[4-[2-[[1-(2-hydroxyethyl)pyrrolidin-3-yl]methoxy]-7-(3-hydroxy-1-naphthyl)-6,8-dihydro-5H-pyrido[3,4-d]pyrimidin-4-yl]piperazin-1-yl]prop-2-en-1-one]	C (“C”>50% POC)	–	> 1000	–	–
C=CC(=O)N1CCN(c2nc(OC[C@@H]3CCCN3C)nc3c2CCN(c2c(C)ccc4cn[nH]c24)C3)CC1CC#N (stereo partly drawn) [Example 238, 2-(1-acryloyl-4-(7-(6-methyl-1H-indazol-7-yl)-2-(((S)-1-methylpyrrolidin-2-yl)methoxy)-5,6,7,8-tetrahydropyrido[3,4-d]pyrimidin-4-yl)piperazin-2-yl)acetonitrile]	C (“C”>50% POC)	–	0.1 to 1000	–	–
CN(C)C/C=C/C(=O)N1CCN(c2nc(OC[C@@H]3CCCN3C)nc3c2CCN(c2cc(O)cc4ccccc24)C3)CC1 [Example 199, (S,E)-4-(dimethylamino)-1-(4-(7-(3-hydroxynaphthalen-1-yl)-2-((1-methylpyrrolidin-2-yl)methoxy)-5,6,7,8-tetrahydropyrido[3,4-d]pyrimidin-4-yl)piperazin-1-yl)but-2-en-1-one]	C (“C”>50% POC)	–	> 1000	–	–
C=CC(=O)N1CCN(c2nc(N3CC(N(C)C)C3)nc3c2CCN(c2cc(O)cc4ccccc24)C3)CC1 [Example 128, 1-(4-(2-(3-(dimethylamino)azetidin-1-yl)-7-(3-hydroxynaphthalen-1-yl)-5,6,7,8-tetrahydropyrido[3,4-d]pyrimidin-4-yl)piperazin-1-yl)prop-2-en-1-one]	C (“C”>50% POC)	–	> 1000	–	–
C=CC(=O)N1CCN(c2nc(OCC3CN(C)CCN3)nc3c2CCN(c2cc(O)cc4ccccc24)C3)CC1 (stereo not drawn) [Example 80, 1-(4-(7-(3-hydroxynaphthalen-1-yl)-2-((4-methylpiperazin-2-yl)methoxy)-5,6,7,8-tetrahydropyrido[3,4-d]pyrimidin-4-yl)piperazin-1-yl)prop-2-en-1-one]	C (“C”>50% POC)	–	> 1000	–	–
C=CC(=O)N1CCN(c2nc(OC[C@@H]3CCCN3C)nc3c2CCN(c2ccccc2C(F)(F)F)C3)CC1CC#N (stereo partly drawn) [Example 210, 2-(1-acryloyl-4-(2-(((S)-1-methylpyrrolidin-2-yl)methoxy)-7-(2-(trifluoromethyl)phenyl)-5,6,7,8-tetrahydropyrido[3,4-d]pyrimidin-4-yl)piperazin-2-yl)acetonitrile]	C (“C”>50% POC)	–	–	0.1 to 1000	–
C=CC(=O)N1CCN(c2nc(OC[C@@H]3CCCN3C)nc3c2CCN(c2ccnc4ccccc24)C3)CC1CC#N (stereo partly drawn) [Example 278, 2-(1-acryloyl-4-(2-(((S)-1-methylpyrrolidin-2-yl)methoxy)-7-(quinolin-4-yl)-5,6,7,8-tetrahydropyrido[3,4-d]pyrimidin-4-yl)piperazin-2-yl)acetonitrile]	–	C (“C”>50% POC)	–	–	0.1 to 1000
C=CC(=O)N1CCN(c2nc(OCCCO)nc3c2CCN(c2cccc4ccccc24)C3)CC1CC#N (stereo not drawn) [Example 231, 2-(1-acryloyl-4-(2-(3-hydroxypropoxy)-7-(naphthalen-1-yl)-5,6,7,8-tetrahydropyrido[3,4-d]pyrimidin-4-yl)piperazin-2-yl)acetonitrile]	C (“C”>50% POC)	–	–	0.1 to 1000	–
C=CC(=O)N1CCN(c2nc(OC[C@H]3CCCN3C)nc3c2CCN(c2cccc(F)c2C(F)(F)F)C3)C[C@@H]1CC#N [Example 382, 2-((S)-1-acryloyl-4-(7-(3-fluoro-2-(trifluoromethyl)phenyl)-2-(((R)-1-methylpyrrolidin-2-yl)methoxy)-5,6,7,8-tetrahydropyrido[3,4-d]pyrimidin-4-yl)piperazin-2-yl)acetonitrile]	–	–	–	–	0.1 to 1000

More lines, main results first:

POC [1]	POC ([1]; 5 µM)	SMILES	IC50 ([2]; Homo sapiens, NCI-H358, 3 h) [nM]	IC50 ([2]; Homo sapiens) [nM]	IC50 [2] [nM]
C (“C”>50% POC)	–	C=CC(=O)N1CCN(c2nc(OC[C@H]3CN(C)[C@H](C)CO3)nc3c2CCN(c2cccc4ccccc24)C3)C[C@@H]1CC#N [Example 449, 2-((S)-1-Acryloyl-4-(2-(((2R,5R)-4,5-dimethylmorpholin-2-yl)methoxy)-7-(naphthalen-1-yl)-5,6,7,8-tetrahydropyrido[3,4-d]pyrimidin-4-yl)piperazin-2-yl)acetonitrile]	–	–	–
C (“C”>50% POC)	–	C=CC(=O)N1CCN(c2nc(OC[C@H]3C[C@H](O)CN3C)nc3c2CCN(c2cccc4ccccc24)C3)C[C@@H]1CC#N [Example 323, 2-[(2S)-4-[2-[[(2R,4S)-4-hydroxy-1-methyl-pyrrolidin-2-yl]methoxy]-7-(1-naphthyl)-6,8-dihydro-5H-pyrido[3,4-d]pyrimidin-4-yl]-1-prop-2-enoyl-piperazin-2-yl]acetonitrile]	0.1 to 1000	–	–
C (“C”>50% POC)	–	C=CC(=O)N1CCN(c2nc(OC[C@@H]3CCCN3C)nc3c2CCN(c2cccc4ccccc24)C3)C(CC#N)C1 (stereo partly drawn) [Example 437, 2-(4-acryloyl-1-(2-(((S)-1-methylpyrrolidin-2-yl)methoxy)-7-(naphthalen-1-yl)-5,6,7,8-tetrahydropyrido[3,4-d]pyrimidin-4-yl)piperazin-2-yl)acetonitrile]	> 1000	–	–
C (“C”>50% POC)	–	C=CC(=O)N1CCN(c2nc(N3CC[C@H](N(C)C)C3)nc3c2CCN(c2cccc4ccccc24)C3)C[C@@H]1CC#N [Example 402]	0.1 to 1000	–	–
C (“C”>50% POC)	–	Cc1cccc2cccc(N3CCc4c(nc(OC[C@@H]5CCCN5C)nc4N4CCN(C(=O)/C=C/CN5CCOCC5)[C@@H](CC#N)C4)C3)c12 [Example 457, 2-[(2S)-4-[7-(8-methyl-1-naphthyl)-2-[[(2S)-1-methylpyrrolidin-2-yl]methoxy]-6,8-dihydro-5H-pyrido[3,4-d]pyrimidin-4-yl]-1-[(E)-4-morpholinobut-2-enoyl]piperazin-2-yl]acetonitrile]	0.1 to 1000	–	–
C (“C”>50% POC)	–	C=CC(=O)N1CCN(c2nc(OC[C@@H]3CCCN3C)nc3c2CCN(c2cccc(C)c2C(F)(F)F)C3)C[C@@H]1CC#N [Example 364, 2-[(2S)-4-[2-[[(2S)-1-methylpyrrolidin-2-yl]methoxy]-7-[3-methyl-2-(trifluoromethyl)phenyl]-6,8-dihydro-5H-pyrido[3,4-d]pyrimidin-4-yl]-1-prop-2-enoyl-piperazin-2-yl]acetonitrile]	0.1 to 1000	–	–
C (“C”>50% POC)	–	C=CC(=O)N1CCN(c2nc(OC[C@H]3CN(C)CCO3)nc3c2CCN(c2cccc4ccccc24)C3)CC1CC#N (stereo partly drawn) [Example 441, 2-(1-Acryloyl-4-(2-(((R)-4-methylmorpholin-2-yl)methoxy)-7-(naphthalen-1-yl)-5,6,7,8-tetrahydropyrido[3,4-d]pyrimidin-4-yl)piperazin-2-yl)acetonitrile]	–	–	–
